{
  "source": "patent US8637462B2",
  "about": "“Methods for reducing platelet counts and/or platelet adhesion by administering a GC-B receptor agonist” (Mayo Foundation for Medical Education and Research, priority 2011, dated 2014)",
  "key": {"actin": {"system": "actin", "test": "Platelet spreading assay, actin staining", "format": "cell-based", "settings": "FIG. 10", "description": "(§1) The following was performed to determine if CNP could affect cytoskeletal proteins such as tubulin and/or actin. To delineate this function of CNP, human platelets were either treated with the Lbab polypeptide or CNP and were placed on slides using cytospin Immunocytochemistry was performed with anti-tubulin or anti-actin antibodies.\n(§2) To confirm these findings, tubulin and actin also were stained on platelets that were viable and functionally active using a spreading assay."}, "tubulin [1]": {"system": "tubulin", "test": "Platelet spreading assay, tubulin staining", "format": "cell-based", "settings": "FIG. 10", "excerpt": "as §2"}, "tubulin [2]": {"system": "tubulin", "test": "Tubulin polymerization assay", "format": "biochemical", "settings": "nucleation, growth and steady state phases; FIG. 11", "description": "To demarcate whether the effects of CNP on microtubules was direct or indirect, a microtubule polymerization assay from cytoskeleton was utilized as per manufacturer's protocol. The assay studied all three phases of microtubule formation, namely nucleation, growth, and steady state equilibrium.\nA 96-well plate was warmed in the incubator to 37° C. for 10 minutes. During this time, 10× stock solutions of compounds to be tested were prepared. 5 μL of control buffer, 5 μL of the 10× paclitaxel stock, and 5 μL of the 10× test compound were added to their respective wells. Next, the 96 well plate was placed back into warm plate reader for 1 minute. Finally, 50 μL of the tubulin reaction mix was added to each of the wells as quickly as possible, and the plate reader was started."}, "[3]": {"system": "GC-B present on megakaryocytes", "sequence (Q6VVW5 23-1047 limits assumed)": "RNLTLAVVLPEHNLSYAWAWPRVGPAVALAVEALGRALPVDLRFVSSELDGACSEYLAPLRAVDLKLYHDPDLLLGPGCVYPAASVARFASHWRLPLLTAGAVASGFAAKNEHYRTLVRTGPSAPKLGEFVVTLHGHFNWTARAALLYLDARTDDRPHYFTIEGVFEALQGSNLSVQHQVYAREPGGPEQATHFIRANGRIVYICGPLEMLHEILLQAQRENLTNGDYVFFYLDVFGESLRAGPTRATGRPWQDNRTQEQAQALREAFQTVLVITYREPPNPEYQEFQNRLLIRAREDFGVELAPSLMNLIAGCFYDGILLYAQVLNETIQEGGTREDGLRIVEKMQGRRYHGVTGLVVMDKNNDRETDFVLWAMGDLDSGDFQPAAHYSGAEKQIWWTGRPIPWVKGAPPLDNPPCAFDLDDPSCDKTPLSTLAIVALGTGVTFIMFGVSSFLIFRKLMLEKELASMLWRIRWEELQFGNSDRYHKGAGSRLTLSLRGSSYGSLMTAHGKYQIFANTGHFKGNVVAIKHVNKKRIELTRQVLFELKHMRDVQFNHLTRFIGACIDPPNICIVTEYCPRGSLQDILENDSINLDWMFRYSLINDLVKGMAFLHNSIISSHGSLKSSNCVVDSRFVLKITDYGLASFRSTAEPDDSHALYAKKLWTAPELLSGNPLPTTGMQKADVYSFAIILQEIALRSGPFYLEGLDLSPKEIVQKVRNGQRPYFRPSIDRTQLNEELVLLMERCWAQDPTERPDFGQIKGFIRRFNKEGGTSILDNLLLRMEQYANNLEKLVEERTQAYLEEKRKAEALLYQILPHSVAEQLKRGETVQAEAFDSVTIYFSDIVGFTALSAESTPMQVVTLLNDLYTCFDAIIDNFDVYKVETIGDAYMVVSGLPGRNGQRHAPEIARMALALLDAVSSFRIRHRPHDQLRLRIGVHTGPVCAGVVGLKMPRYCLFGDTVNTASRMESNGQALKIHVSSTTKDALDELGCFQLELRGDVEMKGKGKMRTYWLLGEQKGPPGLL", "test": "cGMP production in megakaryocytes (BIOTRAK cGMP enzyme immunoassay)", "format": "cell-based, mouse", "settings": "30 minutes at 37° C.; FIG. 3", "excerpt": "Primary hematopoietic progenitor cells were isolated from mouse fetal livers of E13.5 embryos (C57B1/6) or from femurs and tibias of C57B1/6 mice using the EasySep negative selection mouse hematopoietic progenitor enrichment kit (Stem Cell Technologies, Vancouver, BC). The progenitor cells were then expanded for two days in serum free expansion media containing 50% RPMI using standard techniques to generate megakaryocytes (Huang et al., J. Clin. Invest., 117(12):3890-9 (2007) and Muntean and Crispino, Blood, 106(4):1223-31 (2005)). The purity of the megakaryocytes was assessed using acetylcholinesterase (AchE) staining using standard protocols and FACS with CD41 (Emfret Analytics).\nThe following was performed to determine if GC-B present on megakaryocytes is functional and responsive to CNP. Megakaryocytes were treated with either CNP or a single residue mutant CNP designated Lbab for 30 minutes at 37° C. with 5% CO2 in IMDM media supplemented with 1% Nutridoma, penicillin, streptomycin, L-glutamine, and recombinant TPO. The Lbab polypeptide (FIG. 2) is described elsewhere (Yoder et al., Peptides, 29(9):1575-81 (2008)).\nAfter the incubation, the cells were lysed, and the amount of cGMP was measured using a BIOTRAK cGMP enzyme immunoassay system Kit (GE Healthcare Bio-Sciences Corp.)."}, "platelets [4]": {"system": "platelets", "test": "Platelet adhesion to collagen", "format": "cell-based, human or C57B1/6 mice", "settings": "for number of platelets adhered to collagen: n=5; for platelet adhesion to collagen (in words): FIG. 7; for pseudopodia formation of platelets adhered to collagen: light microscopy", "description": "(§3) The role of CNP on platelet aggregation and platelet adhesion to fibrinogen, fibronectin, and collagen were assessed. Human platelets or platelets from C57B1/6 mice were isolated and treated with either CNP or the Lbab polypeptide for 30 minutes at 37° C. with 5% CO2. Following treatment, the platelets were gently added to cover slips pre-blocked with 1% BSA and pre-coated with fibrinogen, fibronectin, or collagen (50 μg/mL, CHRONOLOG Corp., Havertown, Pa.). Ca^+2 and Mg^+2 were added to 1 mM and 2 mM, respectively, before incubation at 37° C. for 30 minutes. The platelets were then fixed and permeabilized before staining with TRITC Phalloidin (0.5 μg/mL; Sigma) for an hour. The platelets were then gently washed a couple of times with PBS and mounted in Vectashield mounting medium (Vector laboratories, Burlingame, Calif.) and sealed with nail polish as described elsewhere (Moraes et al., J. Thromb. Haemost., 8(11):2530-41 (2010); and Bougie et al., Blood, 116(16):3033-8 (2010)). Images were acquired from five consecutive fields using a Zeiss Axioscop microscope (Carl Zeiss, Oberkochen, Germany) with a Zeiss 100× oil-immersion lens. The images were analyzed using ImageJ software.\nPlatelets were isolated and treated with either CNP or the mutant Lbab polypeptide for 30 minutes at 37° C. with 5% CO2. Following treatment, the platelets were gently added to cover slips pre-blocked with 1% BSA and pre-coated with collagen ([…], CHRONOLOG-corporation). Ca^+2 and Mg^+2 were added to 1 mM and 2 mM, respectively, before incubation at 37° C. for 30 minutes. The platelets were then fixed and permeabilized before staining with TRITC Phalloidin (0.5 μg/mL; Sigma) for an hour. The platelets were then gently washed a couple of times with PBS and then mounted in Vectashield mounting medium (Vector laboratories, Burlingame, Calif.) and sealed with nail polish. Images were acquired from five consecutive fields using Zeiss Axioscop microscope (Carl Zeiss, Oberkochen, Germany) with a Zeiss 100× oil-immersion lens and analyzed using ImageJ software.\nCells were placed in Trump's fixative, 4% formaldehyde: 1% glutaraldehyde for 1 hour or longer at 4° C. After two rinses in 0.1 M sodium phosphate buffer (pH 7.2), samples were dehydrated in a graded ethanol series to 100% ethanol at which time they were critical point dried with liquid carbon dioxide. They were then mounted on specimen stubs, sputter-coated with gold-palladium, and examined with a Hitachi S4700 scanning electron microscope."}, "tubulin [5]": {"system": "tubulin", "test": "Immunocytochemistry of tubulin in platelets (cytospin)", "format": "cell-based", "settings": "human platelets; FIG. 9", "description": "as §1\nPRP was spun down in a cytospin at 1000 rpm for 2 minutes to obtain slides of mouse/human platelets. These slides were fixed and blocked with 10% normal goat serum and incubated with mouse anti-tubulin antibody at 1:700 (Sigma) in PBS. Goat anti-mouse Alexa Fluor 594 at 1:500 (Molecular Probes) was used to visualize the tubulin. Matched negative controls also were used."}, "platelets [6]": {"system": "platelets", "test": "Platelet adhesion to fibrinogen", "format": "cell-based, human or C57B1/6 mice", "settings": "CNP-treated vs Lbab polypeptide-treated", "description": "as §3"}, "platelets [7]": {"system": "platelets", "test": "Platelet adhesion to fibronectin", "format": "cell-based, human or C57B1/6 mice", "settings": "CNP-treated vs Lbab polypeptide-treated", "description": "as §3"}, "platelets [8]": {"system": "platelets", "test": "Platelet aggregation (lumi-aggregometer)", "format": "cell-based", "settings": "data not shown", "description": "The role of CNP on platelet aggregation and platelet adhesion to fibrinogen, fibronectin, and collagen were assessed. Human platelets or platelets from C57B1/6 mice were isolated and treated with either CNP or the Lbab polypeptide for 30 minutes at 37° C. with 5% CO2. Following treatment, the platelets were gently added to cover slips pre-blocked with 1% BSA and pre-coated with fibrinogen, fibronectin, or collagen (50 μg/mL, CHRONOLOG Corp., Havertown, Pa.). Ca^+2 and Mg^+2 were added to 1 mM and 2 mM, respectively, before incubation at 37° C. for 30 minutes. The platelets were then fixed and permeabilized before staining with TRITC Phalloidin (0.5 μg/mL; Sigma) for an hour. […] The images were analyzed using ImageJ software.\nPlatelet aggregation was performed at 37° C. in lumi-aggregometer in the presence of luciferin-luciferase to simultaneously measure light transmission and secretion of dense granule-derived ATP. […] Platelet aggregation and secretion was measured in a lumi-aggregometer (Chrono-Log, Havertown, Pa.) for 1 minute following which the polypeptide (CNP or Lbab) was added to the platelets, and aggregation and secretion were measured once again for 2 minutes in order to determine if the polypeptide itself activates the platelets. […] Aggregation and secretion were measured for 15 minutes."}, "megakaryocytes": {"system": "megakaryocytes", "test": "Megakaryocyte colony formation assay (MegaCult-C)", "format": "cell-based, mouse", "settings": "bone marrow cells, 6 to 8 days; FIG. 4", "description": "To determine the effect of CNP on the colony forming ability of megakaryocytes, colony formation assays were conducted using MegaCult®-C (StemCell Tech) as per the manufacturer's protocol. Mice were euthanized, and bone marrow was collected from femurs and tibias by flushing the bones multiple times with IMDM. Once a single cell suspension was achieved, the cells were added to MegaCult®-C medium containing cytokines and collagen. The cell suspension was then dispensed into the chamber slide at the concentration of 20,000 cells/well and incubated at 37° C. with 5% CO2 and >95% humidity for 6 to 8 days. The cells were then dehydrated and fixed with acetone followed by acetylcholinesterase staining. The colonies were scored using a 5× objective, and 10× objective was used to examine colonies in greater detail."}, "platelets [9]": {"system": "platelets", "test": "cGMP production in washed platelets", "format": "cell-based, mouse", "settings": "30 minutes at 37° C. in Tyrode's buffer with 1 mM Ca+2; FIG. 6", "description": "Platelet isolation was adapted from studies described elsewhere (Boylan et al., Blood, 108(3):908-14 (2006); Moraes et al., J. Thromb. Haemost., 8(11):2530-41 (2010); and Bougie et al., Blood, 116(16):3033-8 (2010)). Briefly, C57BL/6 mice were anesthetized with ketamine/xylazine. Blood was obtained from the vena cava and collected into 3.8% sodium citrate. The whole blood was then diluted with equal volumes of Tyrode's buffer containing PGE1 (50 ng/mL), glucose (1 mg/mL), and BSA (2.5 mg/mL) before being spun at 280×g to obtain platelet rich plasma (PRP). The upper […] of the PRP was collected and spun for 10 minutes to collect the platelets. The platelets were then washed with Tyrode's buffer before any analysis was performed. The platelets were counted, visualized by microscopy, and then used for FACS analysis, immunostaining, and western blotting. CD41, CD42D, and GC-B expression was detected by FACS (FIG. 5, middle panel).\nThe effect of CNP on cGMP production in platelets was studied. Washed platelets were treated with CNP or the mutant Lbab polypeptide for 30 minutes at 37° C. with 5% CO2 in Tyrode's buffer with 1 mM Ca^+2. After the incubation, the cells were lysed, and the amount of cGMP was calculated according to the standard curve that was generated from parallel reactions within the same experiment."}},
  "note": "Entries after “also recorded” stand apart in the source; their conditions may differ.",
  "data": [
    {"molecule": "CC(=O)O[C@H]1C(=O)[C@@]2(C)[C@H]([C@H](OC(=O)c3ccccc3)[C@]3(O)C[C@H](OC(=O)[C@H](O)[C@@H](NC(=O)c4ccccc4)c4ccccc4)C(C)=C1C3(C)C)[C@]1(OC(C)=O)CO[C@@H]1C[C@@H]2O", "note": "[Taxol, paclitaxel, reference compound]", "values": [
      {"measurement": "actin distribution / function in spreading platelets", "setting": "actin", "value": "minimal effect on actin distribution"},
      {"measurement": "tubulin distribution in spreading platelets", "setting": "tubulin [1]", "value": "inhibits tubulin distribution in spreading platelets"},
      {"measurement": "tubulin polymerization (O.D.)", "setting": "tubulin [2]", "value": "effects on the growth and steady state phases of tubulin polymerization"}
    ]},
    {"molecule": "Lbab: single residue mutant CNP (SEQ ID NO:2) with Arg to Gly substitution, used as control polypeptide (GLSKGCFGLKLDGIGSMSGLGC; Mutant CNP; listed as Homo sapiens) [reference compound]", "values": [
      {"measurement": "tubulin distribution in spreading platelets", "setting": "tubulin [1]", "value": "does not demonstrate such an affect"},
      {"measurement": "cGMP production by megakaryocytes", "setting": "[3]", "value": "but not the Lbab polypeptide, stimulated cGMP production"},
      {"measurement": "number of platelets adhered to collagen", "setting": "platelets [4]; 500 nM", "value": "4536±43"},
      {"measurement": "number of platelets adhered to collagen", "setting": "platelets [4]; 1000 nM", "value": "4390±24"},
      {"measurement": "platelet adhesion to collagen (in words)", "setting": "platelets [4]", "value": "near normal platelet adhesion to collagen"},
      {"measurement": "pseudopodia formation of platelets adhered to collagen", "setting": "platelets [4]", "value": "normal sprouting of pseudopodia"},
      {"measurement": "marginal band formation (tubulin) within platelets", "setting": "tubulin [5]", "value": "capable of forming clear marginal bands"}
    ]},
    {"molecule": "c-type natriuretic peptide [CNP]", "values": [
      {"measurement": "actin distribution / function in spreading platelets", "setting": "actin", "value": "minimal effect on actin distribution; also recorded: does not influence actin function significantly"},
      {"measurement": "tubulin distribution in spreading platelets", "setting": "tubulin [1]", "value": "inhibits tubulin distribution in spreading platelets"},
      {"measurement": "cGMP production by megakaryocytes", "setting": "[3]", "value": "stimulated a dose-dependent increase in cGMP formation"},
      {"measurement": "adhesion of platelets to fibrinogen", "setting": "platelets [6]", "value": "no significant difference"},
      {"measurement": "number of platelets adhered to collagen", "setting": "platelets [4]; 500 nM", "value": "2451±39"},
      {"measurement": "number of platelets adhered to collagen", "setting": "platelets [4]; 1000 nM", "value": "1712±20"},
      {"measurement": "platelet adhesion to collagen (in words)", "setting": "platelets [4]", "value": "attenuated platelet adhesion to collagen"},
      {"measurement": "filopodia of platelets in the presence of collagen", "setting": "platelets [4]; electron microscopy, varying concentrations, FIG. 8", "value": "aberrant filopodia"},
      {"measurement": "pseudopodia formation of platelets adhered to collagen", "setting": "platelets [4]", "value": "abnormal pseudopodia formation"},
      {"measurement": "adhesion of platelets to fibronectin", "setting": "platelets [7]", "value": "no significant difference"},
      {"measurement": "platelet aggregation", "setting": "platelets [8]", "value": "unaffected"},
      {"measurement": "marginal band formation (tubulin) within platelets", "setting": "tubulin [5]", "value": "decreased marginal band formation"},
      {"measurement": "tubulin polymerization (O.D.)", "setting": "tubulin [2]", "value": "has effects on the growth and steady state phases of tubulin polymerization"},
      {"measurement": "megakaryocyte colony formation", "setting": "megakaryocytes", "value": "inhibited colony formation"},
      {"measurement": "megakaryocyte colony size", "setting": "megakaryocytes", "value": "significantly affected colony size"},
      {"measurement": "cGMP production in platelets", "setting": "platelets [9]", "value": "did not affect cGMP levels"}
    ]}
  ]
}
